Laboratory results taken from paper PMC5346991 (ACS Medicinal Chemistry Letters, 2017).

Key:
[1] = Human plasma protein binding; assay type: in vitro ADME; details: Table 1
[2] = Mouse pharmacokinetics, plasma and brain exposure; assay type: in vivo, female BALB/c mice; details: 10 mg/kg i.p., for 4 h
HepG2 cells = assay: HepG2 toxicity assay; assay type: cell-based; details: host cell toxicity

## O=S(=O)(c1ccc(-c2ccc3nccc(Nc4ccc(OCc5cccc(F)c5)cc4)c3c2)cc1)N1CCOCC1 [Compound 3]
[1]
  protein binding (% free): <0.03 % free

## O=S(=O)(c1ccc(-c2ccc3nccc(Nc4ccncn4)c3c2)cc1)N1CCOCC1 [Compound 13j, 6-(4-(morpholinosulfonyl)phenyl)-N-(pyrimidin-4-yl)quinolin-4-amine]
[2]
  plasma exposure relative to the EC50: > 120 fold

## COc1ccc(Nc2ccnc3ccc(-c4ccc(S(=O)(=O)N5CCOCC5)cc4)cc23)cc1C [Compound 13k]
HepG2 cells
  HepG2 TC50: 9.0 µM
